Test results as given in PubChem BioAssay AID330 (DTP/NCI, 2004).
Several values for one entry are separate records, joined by “and”; a condition that tells them apart may be missing. Identical values can stand only once. Toxic doses and inconclusive results are not listed. The calls were made as follows: active = survival T/C of 150% or more; inactive = T/C below 125% in these data.

System: P388 leukemia ip, CD2F1 mice, survival T/C
Experiment: NCI In Vivo Anticancer Drug Screen. Data for tumor model P388 Leukemia (intraperitoneal) in CD2F1 (CDF1) mice
Conditions: endpoint: median survival time, higher = longer survival
Outline: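 Mice carrying the transplanted tumor received test compound or vehicle. Survival was recorded in each group, and the value is the treated-group measurement divided by that of the vehicle-treated control group.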

[1] = dose: 12.5 mg/kg/injection, schedule: Q01DX009 (ip), vehicle: saline with Tween-80
[2] = dose: 25.0 mg/kg/injection, schedule: Q01DX009 (ip), vehicle: saline with Tween-80
[3] = dose: 50.0 mg/kg/injection, schedule: Q01DX005 (ip), vehicle: saline with Tween-80
[4] = dose: 100.0 mg/kg/injection, schedule: Q01DX005 (ip), vehicle: saline with Tween-80
[5] = dose: 60.0 mg/kg/injection, schedule: Q01DX005 (ip), vehicle: saline with Tween-80
[6] = dose: 200.0 mg/kg/injection, schedule: Q01DX005 (ip), vehicle: saline with Tween-80
[7] = dose: 50.0 mg/kg/injection, schedule: Q01DX009 (ip), vehicle: saline with Tween-80
[8] = dose: 50.0 mg/kg/injection, schedule: Q04DX003 (ip), vehicle: saline with Tween-80
[9] = dose: 100.0 mg/kg/injection, schedule: Q04DX003 (ip), vehicle: saline with Tween-80
[10] = dose: 50.0 mg/kg/injection, schedule: Q01DX009 (ip), vehicle: Klucel (hydroxypropylcellulose) (HPC)
[11] = dose: 100.0 mg/kg/injection, schedule: Q01DX009 (ip), vehicle: Klucel (hydroxypropylcellulose) (HPC)
[12] = dose: 200.0 mg/kg/injection, schedule: Q01DX009 (ip), vehicle: Klucel (hydroxypropylcellulose) (HPC)
[13] = dose: 6.25 mg/kg/injection, schedule: Q01DX009 (ip), vehicle: saline with Tween-80
[14] = dose: 12.5 mg/kg/injection, schedule: Q01DX009 (ip), vehicle: Klucel (hydroxypropylcellulose) (HPC)
[15] = dose: 25.0 mg/kg/injection, schedule: Q01DX009 (ip), vehicle: Klucel (hydroxypropylcellulose) (HPC)
[16] = dose: 50.0 mg/kg/injection, schedule: Q01DX005 (ip), vehicle: Klucel (hydroxypropylcellulose) (HPC)
[17] = dose: 100.0 mg/kg/injection, schedule: Q01DX005 (ip), vehicle: Klucel (hydroxypropylcellulose) (HPC)
[18] = dose: 200.0 mg/kg/injection, schedule: Q01DX005 (ip), vehicle: Klucel (hydroxypropylcellulose) (HPC)

Measured: T/C

CCOC(=O)c1ccc(NC(=O)N(C2CCCCC2)C2CCCCC2)cc1
inactive: dose: 3.75 mg/kg/injection, schedule: Q01DX005 (ip), vehicle: Klucel (hydroxypropylcellulose) (HPC) 93 % of control | dose: 7.5 mg/kg/injection, schedule: Q01DX005 (ip), vehicle: Klucel (hydroxypropylcellulose) (HPC) 94 % of control | dose: 15.0 mg/kg/injection, schedule: Q01DX005 (ip), vehicle: Klucel (hydroxypropylcellulose) (HPC) 89 % of control | dose: 240.0 mg/kg/injection, schedule: Q01DX005 (ip), vehicle: Klucel (hydroxypropylcellulose) (HPC) 87 % of control

OC(c1cc(-c2ccc(C(F)(F)F)cc2)nc(C(F)(F)F)c1)C1CCCCN1 (configuration not stated)
inactive: dose: 6.25 mg/kg/injection, schedule: Q01DX009 (ip), vehicle: saline 101 % of control | [1] 95 % of control | dose: 12.5 mg/kg/injection, schedule: Q01DX009 (ip), vehicle: saline 103 % of control | [2] 100 % of control | dose: 25.0 mg/kg/injection, schedule: Q01DX009 (ip), vehicle: saline 107 % of control

O=C(N/C(=C\c1ccccc1)C(=O)N1CCN(Cc2ccccc2)CC1)c1ccccc1
inactive: [3] 89 % of control | [4] 88 % of control

Oc1cc2c(cc1C(c1ccc(Cl)cc1)N1CCCCC1)OCO2 (configuration not stated)
inactive: [5] 117 % of control | dose: 120.0 mg/kg/injection, schedule: Q01DX005 (ip), vehicle: saline with Tween-80 118 % of control | dose: 240.0 mg/kg/injection, schedule: Q01DX005 (ip), vehicle: saline with Tween-80 119 % of control

CCCCCCCCCCCCSC1COC2C(SCCCCCCCCCCCC)COC12 (configuration not stated)
inactive: [3] 100 % of control | [4] 96 % of control | [6] 99 % of control

Cc1nc(Cl)c(C#N)nc1C
inactive: [7] 100 % of control | [8] 110 % of control | dose: 100.0 mg/kg/injection, schedule: Q01DX009 (ip), vehicle: saline with Tween-80 100 % of control | [9] 100 % of control | dose: 200.0 mg/kg/injection, schedule: Q01DX009 (ip), vehicle: saline with Tween-80 100 % of control | dose: 200.0 mg/kg/injection, schedule: Q04DX003 (ip), vehicle: saline with Tween-80 100 % of control

CCOc1ccccc1/C=C1\CCc2ccccc2C1=O
inactive: [10] 100 % of control | [11] 100 % of control | [12] 102 % of control

C=CC(C)(C)C12CC3C(=O)N/C(=C\c4cnc[nH]4)C(=O)N3C1Nc1ccccc12 (configuration not stated)
inactive: dose: 6.25 mg/kg/injection, schedule: Q01DX009 (ip), vehicle: Klucel (hydroxypropylcellulose) (HPC) 118 % of control and 97 % of control | [13] 86 % of control | [14] 116 % of control and 95 % of control | [15] 98 % of control and 106 % of control | [2] 92 % of control | [10] 106 % of control and 109 % of control | [7] 100 % of control

NCCSc1cc(O)c2c(c1N)C(=O)c1ccccc1C2=O
inactive: [14] 106 % of control | [15] 104 % of control | [10] 106 % of control | [11] 105 % of control

Nc1c(-c2nc3ccc(C4=NCCN4)cc3[nH]2)[nH]c2cc(-c3nc4ccc(C5=NCCN5)cc4[nH]3)ccc12
inactive: [16] 90 % of control | [17] 90 % of control

COc1cc(N)c2ncccc2c1Br
inactive: [16] 100 % of control | [17] 104 % of control | [18] 97 % of control

C/C(=N\Nc1ccc([N+](=O)[O-])cc1[N+](=O)[O-])c1ccc(C)cc1
inactive: dose: 50.0 mg/kg/injection, schedule: Q01DX001 (ip), vehicle: Klucel (hydroxypropylcellulose) (HPC) 105 % of control | dose: 100.0 mg/kg/injection, schedule: Q01DX001 (ip), vehicle: Klucel (hydroxypropylcellulose) (HPC) 107 % of control | dose: 200.0 mg/kg/injection, schedule: Q01DX001 (ip), vehicle: Klucel (hydroxypropylcellulose) (HPC) 95 % of control | dose: 400.0 mg/kg/injection, schedule: Q01DX001 (ip), vehicle: Klucel (hydroxypropylcellulose) (HPC) 91 % of control

CCOC(=O)NC(NC(=O)OCC)C(=O)Nc1cccc2c(OC(=O)C(NC(=O)OCC)NC(=O)OCC)c(N=Nc3ccc(S(=O)(=O)Nc4nccs4)cc3)cc(N=Nc3ccc(S(=O)(=O)Nc4nccs4)cc3)c12 (tested in a mixture with another compound)
inactive: [3] 117 % of control | [4] 112 % of control and 94 % of control

c1ccc(CCn2c(-c3ccncc3)nc3ccccc32)nc1
inactive: dose: 25.0 mg/kg/injection, schedule: Q01DX005 (ip), vehicle: Klucel (hydroxypropylcellulose) (HPC) 109 % of control | [16] 104 % of control | [17] 107 % of control | [18] 105 % of control

C1=C(C2=C[P+](c3ccccc3)(c3ccccc3)C=C(c3ccccc3)O2)OC(c2ccccc2)=C[P+]1(c1ccccc1)c1ccccc1
inactive: dose: 12.5 mg/kg/injection, schedule: Q01DX005 (ip), vehicle: saline with Tween-80 103 % of control | dose: 25.0 mg/kg/injection, schedule: Q01DX005 (ip), vehicle: saline with Tween-80 100 % of control

CC/C(=N\NS(=O)(=O)c1ccc(C)cc1)c1cccc(C#N)c1
inactive: dose: 50.0 mg/kg/injection, schedule: Q01DX009 (ip), vehicle: saline 106 % of control | dose: 100.0 mg/kg/injection, schedule: Q01DX009 (ip), vehicle: saline 96 % of control | dose: 200.0 mg/kg/injection, schedule: Q01DX009 (ip), vehicle: saline 99 % of control

Cc1oc(N)c(C#N)c1C
inactive: dose: 100.0 mg/kg/injection, schedule: Q01DX009 (ip), vehicle: saline sonified 110 % of control | dose: 200.0 mg/kg/injection, schedule: Q01DX009 (ip), vehicle: saline sonified 115 % of control | dose: 400.0 mg/kg/injection, schedule: Q01DX009 (ip), vehicle: saline sonified 120 % of control

Nc1nc(-c2cc3cc(Cl)ccc3o2)cs1
inactive: [10] 101 % of control | [11] 101 % of control | [12] 100 % of control

C#CCNC(=S)N/N=C(\C)c1ccccn1
inactive: dose: 3.13 mg/kg/injection, schedule: Q01DX009 (ip), vehicle: saline with Tween-80 97 % of control | [13] 97 % of control | [1] 103 % of control

C=CC(=NC(C)(C)C)N(CC)CC
inactive: dose: 15.0 mg/kg/injection, schedule: Q01DX005 (ip), vehicle: saline with Tween-80 103 % of control | dose: 30.0 mg/kg/injection, schedule: Q01DX005 (ip), vehicle: saline with Tween-80 105 % of control | [5] 100 % of control and 106 % of control

CCOC(=O)C(=O)C(C(=O)c1ccccn1)c1nc2n(c1O)C(=N)N=N2 (configuration not stated)
inactive: [3] 102 % of control | [4] 94 % of control | [6] 87 % of control

O=C1NCNC(=O)N1
inactive: dose: 12.5 mg/kg/injection, schedule: Q04DX003 (ip), vehicle: saline with Tween-80 100 % of control | dose: 25.0 mg/kg/injection, schedule: Q04DX003 (ip), vehicle: saline with Tween-80 98 % of control | [8] 101 % of control | [9] 98 % of control

N#Cc1ccc(NN=NCCSCCO)cc1
inactive: dose: 12.5 mg/kg/injection, schedule: Q01DX009 (ip), vehicle: distilled water + alcohol 96 % of control | dose: 25.0 mg/kg/injection, schedule: Q01DX009 (ip), vehicle: distilled water + alcohol 104 % of control | dose: 50.0 mg/kg/injection, schedule: Q01DX009 (ip), vehicle: distilled water + alcohol 104 % of control | dose: 100.0 mg/kg/injection, schedule: Q01DX009 (ip), vehicle: distilled water + alcohol 109 % of control

Cc1ccc(S(=O)(=O)NCC(Cl)C#N)cc1 (configuration not stated)
inactive: [16] 105 % of control | [17] 106 % of control | [18] 103 % of control | dose: 400.0 mg/kg/injection, schedule: Q01DX005 (ip), vehicle: Klucel (hydroxypropylcellulose) (HPC) 102 % of control

CCC[CH2][Sn]([F])([F])[CH2]CCC
inactive: dose: 6.25 mg/kg/injection, schedule: Q04DX003 (ip), vehicle: saline 107 % of control | dose: 12.5 mg/kg/injection, schedule: Q04DX003 (ip), vehicle: saline 114 % of control | dose: 25.0 mg/kg/injection, schedule: Q04DX003 (ip), vehicle: saline 118 % of control
